Reference: patent US20240173333A1, “Treating Alagille Syndrome (ALGS)” (priority 2022, published 2024)
Marks after values point to notes of the source that are not given here.

Experiments:
[1] = system: patients with Alagille syndrome (ALGS); experiment: ASSERT pruritus responders: serum bile acids
Description: (§2) Treatment with concomitant medications for pruritus was permitted provided the patient was on a stable dosage for ≥4 weeks prior to enrollment that was maintained throughout the study.
(§3) Pruritus responders were defined as patients having a ≥1-point decrease in ObsRO scratching score from baseline to weeks 21-24).

[2] = system: patients with Alagille syndrome (ALGS); experiment: Pooled ASSERT and ASSERT-EXT: sleep parameters; assay type: in vivo, human
Procedure: In the completed 24-week ASSERT study, patients with ALGS with history of significant pruritus and elevated serum BAs were randomized 2:1 to once-daily odevixibat 120 μg/kg or placebo, respectively. Patients who completed ASSERT could enter ASSERT-EXT, an ongoing, 72-week open-label extension study in which all patients receive odevixibat 120 μg/kg/day. This pooled analysis included all odevixibat-treated patients from ASSERT and/or ASSERT-EXT and spans from patients' first dose of odevixibat to a data cut-off of Sep. 9, 2022. Assessments over up to 36 weeks of treatment included change in observer-reported scratching scores and sleep parameters, as well as levels of serum BAs, autotaxin (a proposed meditator of pruritus), and 7 alpha-hydroxy-4-cholesten-3-one (C4; a marker of bile acid synthesis). Safety evaluations included assessment of alanine aminotransferase (ALT), total bilirubin, and treatment-emergent adverse events (TEAEs).

[3] = system: patients with Alagille syndrome (ALGS); experiment: ASSERT: ObsRO sleep parameters and daytime tiredness; assay type: in vivo, human
Description: (§1) […] Additional secondary efficacy endpoints were as follows: • Change from baseline in pruritus to Month 6 (Weeks 21 to 24) as measured by the Albireo PRO instrument. • Percentage of patients achieving a clinically meaningful decrease in pruritus (pruritis responders) as measured by the ObsRO/PRO instruments. • Change from baseline through Week 24 in patient reported and observer reported itching and scratching severity scores, respectively, for the morning assessment and for the evening assessment; sleep parameters as measured with the Albireo ObsRO/PRO instruments (e.g., tiredness and number of awakenings); and PedsQL subdomain scores. • Assessment of Global Symptom Relief to from baseline to Weeks 4, 12, and 24 as measured by patient, caregiver, and clinician Global Impression of Symptoms GIS (PGIS, CaGIS, CGIS) items. • Change from baseline to Week 24 in xanthomatosis as assessed by the Clinician Xanthoma Scale; serum bile acid levels; serum ALT concentration; and serum AST concentration; gamma-glutamyl transferase concentration; total bilirubin concentration. • Change from baseline in biochemical markers and measures of bile acid synthesis (autotaxin, p-C4, only in patients >10 kg); and total cholesterol concentration.
Itching, Scratching, and Sleep Parameters. Itching, observed scratching, and sleep disturbance were recorded twice each day via eDiary. Patients and/or caregivers were instructed to complete the eDiary every day in the morning after the patient woke and in the evening just before the patient went to sleep throughout the study. The eDiary included ObsRO and PRO items. The PRO items assessed severity of itch, aspects of sleep disturbance (morning diary only), and tiredness. The ObsRO items assessed severity of observed scratching, aspects of observed sleep disturbance (morning diary only), and signs of tiredness (evening diary only). The ObsRO and PRO scratching and itch severity items used 0 to 4 response scales.

[4] = system: patients with Alagille syndrome (ALGS); experiment: ASSERT pruritus responders: TEAEs
Description: as §2, §3

[5] = system: patients with Alagille syndrome (ALGS); experiment: ASSERT: Clinician Xanthoma Scale; assay type: in vivo, human
Procedure: Clinical Assessment of Xanthoma. Changes in xanthoma as assessed by the Clinician Xanthoma Scale were measured at randomization (Study Day 1), Week 12, and Week 24/EOT visits. The clinician's assessment of the participant's xanthomatosis was focused on the number of lesions present and the degree to which the participant's lesions interfered or limited activities.

[6] = system: patients with Alagille syndrome (ALGS); experiment: ASSERT: PedsQL total and domain scores; assay type: in vivo, human
Description: as §1
Scores range from 0 and 100, with higher scores indicating better functioning. *n=28 for LS mean change from baseline to week 24. ^†Analysis of change from baseline with odevixibat vs placebo based on ANCOVA model at each visit with baseline score as a covariate and treatment group and age category (<5 years, 5-7 years, 8-12 years, 13-18 years) as fixed effects. ANCOVA=analysis of covariance. LS=least squares. PedsQL=Paediatric Quality of Life Inventory.

[7] = weeks 21-24, caregiver-reported

CCCCC1(CCCC)CN(c2ccccc2)c2cc(SC)c(OCC(=O)N[C@@H](C(=O)N[C@@H](CC)C(=O)O)c3ccc(O)cc3)cc2S(=O)(=O)N1 [odevixibat, 1,1-dioxo-3,3-dibutyl-5-phenyl-7-methylthio-8-(N-{(R)-α-[N-((S)-1-carboxypropyl)carbamoyl]-4-hydroxybenzyl}carbamoylmethoxy)-2,3,4,5-tetrahydro-1,2,5-benzothiadiazepine]
Bile acids, Week 24 Mean (SE) ([1]; average of weeks 20 and 24, n=28): 136 (19) μmol/L | Bile acids, Mean (SE) Change From Baseline ([1]; baseline to average of weeks 20 and 24): −107 (23) μmol/L | Bile acids, Baseline Mean (SE) ([1]; n=28): 243 µmol/L | Bile acids, Baseline Mean (SE) ([1]; n=28, listed as Odevixibat): 243 (23) μmol/L | Days seeing blood due to scratching, Mean (SD) % of Days ([2]; Baseline, n=50): 35% (34%) | Days sleeping with caregiver, Mean (SD) % of Days ([2]; Baseline, n=50): 43% (45%) | Days with help falling asleep, Mean (SD) % of Days ([2]; Baseline, n=50): 57% (45%) | Days with soothing, Mean (SD) % of Days ([2]; Baseline, n=50): 64% (43%) | Days seeing blood due to scratching, Mean (SD) % of Days ([2]; Weeks 33-36, n=21): 5.7% (14%) | Days sleeping with caregiver, Mean (SD) % of Days ([2]; Weeks 33-36, n=21): 10% (26%) | Days with help falling asleep, Mean (SD) % of Days ([2]; Weeks 33-36, n=21): 10% (18%) | Days with soothing, Mean (SD) % of Days ([2]; Weeks 33-36, n=21): 12% (25%) | Days seeing blood due to scratching, Mean (95% CI) Change From Baseline to Week 33-36 ([2]; n=21): −30% (−42%, −17%)*** | Days sleeping with caregiver, Mean (95% CI) Change From Baseline to Week 33-36 ([2]; n=21): −44% (−64%, −24%)*** | Days with help falling asleep, Mean (95% CI) Change From Baseline to Week 33-36 ([2]; n=21): −60% (−78%, −43%)*** | Days with soothing, Mean (95% CI) Change From Baseline to Week 33-36 ([2]; n=21): −59% (−77%, −40%)*** | mean reduction from baseline in daytime tiredness (5-point scale 0-4) ([3]; baseline to weeks 21 to 24, caregiver-rated): −1.1 | LS mean change from baseline, percent of days sleeping with caregiver [3, 7]: −35% | LS mean change from baseline, percent of days with help falling asleep [3, 7]: −43% | LS mean change from baseline, percent of days with soothing [3, 7]: −47% | pruritus responders reporting any TEAE ([4]; 21 of 28): 75% | TEAEs leading to death or study drug discontinuation ([4]; pruritus responders): no TEAEs leading to death or study drug discontinuation were reported | Any TEAE ([4]; pruritus responders, n=28): 21 (75) n (%) | Any TEAE: Mild ([4]; pruritus responders, n=28): 10 (36) n (%) | Any TEAE: Moderate ([4]; pruritus responders, n=28): 8 (29) n (%) | Any TEAE: Severe ([4]; pruritus responders, n=28): 3 (11) n (%) | Drug-related TEAE: Abdominal pain ([4]; pruritus responders, n=28): 1 (4) n (%) | Drug-related TEAE: Abdominal pain upper ([4]; pruritus responders, n=28): 1 (4) n (%) | Drug-related TEAE: Blood triglycerides increased ([4]; pruritus responders, n=28): 1 (4) n (%) | Drug-related TEAE: Diarrhea ([4]; pruritus responders, n=28): 4 (14) n (%) | Drug-related TEAE: Feces discolored ([4]; pruritus responders, n=28): 1 (4) n (%) | Drug-related TEAE: Frequent bowel movements ([4]; pruritus responders, n=28): 1 (4) n (%) | Drug-related TEAE: Hematemesis ([4]; pruritus responders, n=28): 1 (4) n (%) | Drug-related TEAE: Hepatic enzyme increased ([4]; pruritus responders, n=28): 1 (4) n (%) | Drug-related TEAE: INR increased ([4]; pruritus responders, n=28): 1 (4) n (%) | Drug-related TEAE: Nausea ([4]; pruritus responders, n=28): 1 (4) n (%) | Drug-related TEAE: Vomiting ([4]; pruritus responders, n=28): 2 (7) n (%) | Drug-related TEAE: Weight decreased ([4]; pruritus responders, n=28): 1 (4) n (%) | Drug-related TEAEs ([4]; pruritus responders, n=28): 8 (29) n (%) | Drug-related serious TEAEs ([4]; pruritus responders, n=28): 1 (4)^a n (%) | Serious TEAEs ([4]; pruritus responders, n=28): 3 (11) n (%) | TEAEs leading to discontinuation ([4]; pruritus responders, n=28): 0 n (%) | TEAEs leading to treatment interruption ([4]; pruritus responders, n=28): 2 (7) n (%) | patients with no change from baseline to week 24 in xanthomas ([5]; 27/35, incl. 25 patients without xanthomas at any time point): 77% | patients showing improvements in xanthomas ([5]; baseline to week 24, n=35): 20% | patients whose Clinician Xanthoma Scale score increased (from 0 to 1) ([5]; baseline to week 24, n=35): 3% | PedsQL Emotional Functioning, Mean (SD) at baseline ([6]; baseline, n=30): 55.8 (17.8) | PedsQL Physical Functioning, Mean (SD) at baseline ([6]; baseline, n=30): 71.6 (21.4) | PedsQL School Functioning, Mean (SD) at baseline ([6]; baseline, n=30): 63.3 (22.9) | PedsQL Social Functioning, Mean (SD) at baseline ([6]; baseline, n=30): 78.5 (18.8) | PedsQL Total Score, Mean (SD) at baseline ([6]; baseline, n=30, score 0-100): 67.8 (16.3) | PedsQL Emotional Functioning, LS mean (SE) change from baseline to week 24 ([6]; n=28): 21.0 (3.3) | PedsQL Physical Functioning, LS mean (SE) change from baseline to week 24 ([6]; n=28): 14.2 (2.9) | PedsQL School Functioning, LS mean (SE) change from baseline to week 24 ([6]; n=28): 13.3 (3.0) | PedsQL Social Functioning, LS mean (SE) change from baseline to week 24 ([6]; n=28): 5.1 (3.2) | PedsQL Total Score, LS mean (SE) change from baseline to week 24 ([6]; n=28, score 0-100): 13.5 (2.5)
